Test results reported in ChEMBL document CHEMBL1201862, “PubChem BioAssay data set” (2004).
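Growth conditions: 96-well plates. Treatment: test compound, 48 hours, 5 concentrations. Analysis: linear interpolation between bracketing concentrations; unreached endpoints set to highest concentration. Here, GI50 denotes the concentration required for 50% inhibition of growth.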 Active and inactive are the calls of the source. Rule as the data show it: active = GI50 up to about 1.1 µM and inactive = higher.

Legend:
Experiment in all cases: NCI anticancer screen, dose series, 48 h
SF-268 = tested on: SF-268
SK-OV-3 = tested on: SK-OV-3
RXF 393 = tested on: RXF 393
OVCAR-8 = tested on: OVCAR-8
HT-29 = tested on: HT-29
UACC-257 = tested on: UACC-257
SK-MEL-2 = tested on: SK-MEL-2
OVCAR-3 = tested on: OVCAR-3
OVCAR-5 = tested on: OVCAR-5
A549 = tested on: A549
OVCAR-4 = tested on: OVCAR-4
RPMI-8226 = tested on: RPMI-8226
KM12 = tested on: KM12
HOP-62 = tested on: HOP-62
U-251 = tested on: U-251
SW-620 = tested on: SW-620
SNB-19 = tested on: SNB-19
LOX IMVI = tested on: LOX IMVI
NCI-H522 = tested on: NCI-H522

Measured: GI50

Cc1ccc(O)c(/N=N\c2c(O)cc(S(=O)(=O)O)c3ccccc23)c1
inactive: SF-268 > 100 µM | SK-OV-3 51.4 µM | RXF 393 > 100 µM | OVCAR-8 26.2 µM | HT-29 61.5 µM | UACC-257 94.6 µM | SK-MEL-2 29.7 µM | OVCAR-3 22.5 µM | OVCAR-5 45.6 µM | A549 54.6 µM | OVCAR-4 66.1 µM | RPMI-8226 37.9 µM | KM12 21.8 µM | HOP-62 57.4 µM | U-251 61.8 µM | SW-620 45.2 µM

CS(=O)(=O)N(CCC#N)c1ccc(C=O)cc1
inactive: SF-268 > 100 µM | SK-OV-3 > 100 µM | OVCAR-8 > 100 µM | HT-29 > 100 µM | UACC-257 > 100 µM | SK-MEL-2 > 100 µM | SNB-19 > 100 µM | OVCAR-3 > 100 µM | OVCAR-5 > 100 µM | A549 > 100 µM | OVCAR-4 > 100 µM | RPMI-8226 > 100 µM | KM12 > 100 µM | HOP-62 97.9 µM | U-251 > 100 µM | LOX IMVI > 100 µM | NCI-H522 > 100 µM | SW-620 > 100 µM

Cc1ccc2nc3cc(C)c(=O)cc-3sc2c1
inactive: SF-268 81.1 µM | SK-OV-3 > 100 µM | OVCAR-8 56 µM | HT-29 > 100 µM | UACC-257 54.6 µM | SK-MEL-2 > 100 µM | SNB-19 > 100 µM | OVCAR-3 > 100 µM | OVCAR-5 > 100 µM | A549 53.5 µM | OVCAR-4 37.8 µM | KM12 54.1 µM | HOP-62 > 100 µM | U-251 75 µM | NCI-H522 34.4 µM | SW-620 > 100 µM

COP(=O)(OC)/C(=N\Nc1ccc([N+](=O)[O-])cc1)NCc1ccccc1
inactive: SF-268 23.7 µM | OVCAR-8 30.5 µM | HT-29 43.3 µM | UACC-257 21.8 µM | SK-MEL-2 23 µM | OVCAR-3 33.4 µM | OVCAR-5 40.3 µM | A549 31.3 µM | OVCAR-4 24.5 µM | RPMI-8226 19.2 µM | KM12 24.5 µM | HOP-62 23.6 µM | U-251 23.4 µM | NCI-H522 13.4 µM | SW-620 35.6 µM

O=C(Nc1ccc(Cl)cc1)c1cc(S(=O)(=O)Nc2n[nH]c(=O)n2-c2ccccc2)c(S)cc1Cl
inactive: SF-268 > 100 µM | SK-OV-3 > 100 µM | RXF 393 > 100 µM | OVCAR-8 > 100 µM | HT-29 > 100 µM | UACC-257 > 100 µM | SK-MEL-2 > 100 µM | SNB-19 > 100 µM | OVCAR-3 6.28 µM | OVCAR-5 > 100 µM | A549 > 100 µM | OVCAR-4 > 100 µM | RPMI-8226 > 100 µM | KM12 > 100 µM | HOP-62 > 100 µM | U-251 > 100 µM | LOX IMVI > 100 µM | SW-620 > 100 µM

CC1=NN(c2nc(N)nc(C(C)Cl)n2)C(C)(C)C1 (stereo not drawn)
inactive: SF-268 > 100 µM | SK-OV-3 > 100 µM | RXF 393 > 100 µM | OVCAR-8 > 100 µM | HT-29 > 100 µM | UACC-257 > 100 µM | SK-MEL-2 > 100 µM | SNB-19 > 100 µM | OVCAR-4 > 100 µM | RPMI-8226 > 100 µM | KM12 > 100 µM | HOP-62 > 100 µM | U-251 > 100 µM | LOX IMVI > 100 µM | SW-620 > 100 µM

Cc1nc(C(N)=O)c(N)n1CCN1CCN(C(=O)CCCCCCCCCCNC2NC=Nc3[nH]cnc32)CC1 (stereo not drawn)
inactive: SF-268 41.7 µM | SK-OV-3 > 100 µM | OVCAR-8 33.9 µM | HT-29 > 100 µM | UACC-257 16.3 µM | SK-MEL-2 14.3 µM | SNB-19 > 100 µM | OVCAR-3 45.9 µM | OVCAR-5 > 100 µM | A549 51.2 µM | KM12 41 µM | HOP-62 91.6 µM | U-251 > 100 µM | LOX IMVI 33.1 µM | NCI-H522 > 10 µM | SW-620 > 100 µM

COc1cc2c(c(OC)c1OC)C(=O)CC2N (stereo not drawn)
inactive: SF-268 > 100 µM | SK-OV-3 > 100 µM | OVCAR-8 > 100 µM | HT-29 > 100 µM | UACC-257 > 100 µM | SK-MEL-2 > 100 µM | SNB-19 > 100 µM | OVCAR-3 > 100 µM | OVCAR-5 > 100 µM | A549 > 100 µM | OVCAR-4 > 100 µM | RPMI-8226 > 100 µM | KM12 > 100 µM | U-251 > 100 µM | LOX IMVI > 100 µM | NCI-H522 > 100 µM | SW-620 > 100 µM

COC(=O)/C=C/N1CC1
inactive: SF-268 > 10 µM | SK-OV-3 > 10 µM | OVCAR-8 > 10 µM | HT-29 3.28 µM | UACC-257 > 10 µM | SK-MEL-2 > 10 µM | SNB-19 8.15 µM | OVCAR-3 5.81 µM | OVCAR-5 4.76 µM | A549 > 10 µM | OVCAR-4 4.82 µM | RPMI-8226 > 10 µM | KM12 > 10 µM | HOP-62 > 10 µM | U-251 5.41 µM | NCI-H522 > 10 µM

CC/C(CC(=O)CCC(=O)Nc1ccc(C)c(C)c1)=N\NC(=O)C(N)=O
inactive: SF-268 > 100 µM | SK-OV-3 > 100 µM | OVCAR-8 > 100 µM | HT-29 > 100 µM | UACC-257 > 100 µM | SNB-19 > 100 µM | OVCAR-3 > 100 µM | OVCAR-5 > 100 µM | A549 > 100 µM | OVCAR-4 > 100 µM | RPMI-8226 > 100 µM | HOP-62 > 100 µM | U-251 > 100 µM | NCI-H522 > 100 µM | SW-620 > 100 µM

Fc1ccc2c3c([nH]c2c1)CCN(Cc1ccccc1)C3
inactive: SF-268 21 µM | SK-OV-3 19.2 µM | RXF 393 16 µM | OVCAR-8 19.7 µM | HT-29 20.4 µM | UACC-257 15.3 µM | SNB-19 16.6 µM | OVCAR-5 19.9 µM | A549 22.6 µM | OVCAR-4 24.6 µM | RPMI-8226 27.7 µM | KM12 15.3 µM | HOP-62 15 µM | U-251 19.7 µM | LOX IMVI 16.9 µM | SW-620 20.1 µM

Cc1ccc2ccccc2c1NC1=NCCO1
inactive: SF-268 > 100 µM | SK-OV-3 > 100 µM | RXF 393 > 100 µM | OVCAR-8 > 100 µM | HT-29 83 µM | UACC-257 57.3 µM | SNB-19 27.2 µM | OVCAR-5 > 100 µM | A549 > 100 µM | OVCAR-4 94.6 µM | RPMI-8226 36.2 µM | KM12 75.3 µM | HOP-62 > 100 µM | U-251 > 100 µM | SW-620 > 100 µM
